Assay results as given in US8969327B2, “Substituted androst-4-ene diones” (priority 2010, dated 2015).

Target: T1, Purified P450arom (aromatase) reconstituted with P450-reductase (CPR) (Homo sapiens, UniProt P11511)
T1 sequence (P11511 1-503): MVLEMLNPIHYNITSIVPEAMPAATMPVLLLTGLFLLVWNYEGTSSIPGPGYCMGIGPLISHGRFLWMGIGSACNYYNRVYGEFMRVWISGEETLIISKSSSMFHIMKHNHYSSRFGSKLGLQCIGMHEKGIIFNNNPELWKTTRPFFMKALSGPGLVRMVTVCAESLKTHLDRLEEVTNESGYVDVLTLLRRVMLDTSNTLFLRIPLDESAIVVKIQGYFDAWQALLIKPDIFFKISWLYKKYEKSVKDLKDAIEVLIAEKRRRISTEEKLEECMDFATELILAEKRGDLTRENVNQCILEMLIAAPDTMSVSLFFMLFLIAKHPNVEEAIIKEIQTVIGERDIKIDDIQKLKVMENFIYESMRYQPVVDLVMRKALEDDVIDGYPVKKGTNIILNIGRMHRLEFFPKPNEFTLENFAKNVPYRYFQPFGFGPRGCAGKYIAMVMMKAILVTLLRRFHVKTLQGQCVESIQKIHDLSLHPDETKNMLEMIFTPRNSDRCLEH
Experiment: Measurement of aromatase activity by 3H-water method
Assay type: biochemical
Conditions: substrate 0.24 μM [1β-3H, 4-14C] androstenedione, 37° C., 20 minutes

[1] = compound concentration 1 (μmol)
[2] = compound concentration 10 (μmol)
[3] = compound concentration 0.1 (μmol)

| SMILES | % Inhibition [1] [%] | % Inhibition [2] [%] | % Inhibition [3] [%] |
| --- | --- | --- | --- |
| C[C@]12C=CC(=O)C=C1C=C[C@@H]1[C@@H]2CC[C@]2(C)C(=O)CC[C@@H]12 [HDDG-003] | 67 | 80 | – |
| C[C@]12C=CC(=O)C(=[N+]=[N-])C1=CC[C@@H]1[C@@H]2CC[C@]2(C)C(=O)CC[C@@H]12 [HDDG-004] | 25 | 40 | – |
| CCOC1=C(O)C=C[C@@]2(C)C1=CC[C@@H]1[C@@H]2CC[C@]2(C)C(=O)CC[C@@H]12 [HDDG-007] | 12 | 0 | – |
| CO[C@@H]1C[C@@H]2[C@H](CC[C@]3(C)C(=O)CC[C@@H]23)[C@@]2(C)C=CC(=O)C=C12 [HDDG-009] | – | 55 | – |
| C[C@]12C=CC(=O)C=C1[C@H](O)C[C@@H]1[C@@H]2CC[C@]2(C)C(=O)CC[C@@H]12 [HDDG-010] | – | 55 | – |
| COC1=C(O)C=C[C@@]2(C)C1=CC[C@@H]1[C@@H]2CC[C@]2(C)C(=O)CC[C@@H]12 [HDDG-011] | – | 37 | – |
| CO[C@H]1C[C@@H]2[C@H](CC[C@]3(C)C(=O)CC[C@@H]23)[C@@]2(C)C=CC(=O)C=C12 [HDDG-014] | – | 42 | – |
| CC(C)(C)O[C@@H]1C[C@@H]2[C@H](CC[C@]3(C)C(=O)CC[C@@H]23)[C@@]2(C)C=CC(=O)C=C12 [HDDG-015] | – | 54 | – |
| C[C@]12C=CC(=O)C=C1[C@H](OCc1ccccc1)C[C@@H]1[C@@H]2CC[C@]2(C)C(=O)CC[C@@H]12 [HDDG-016] | – | 52 | – |
| C[C@]12CCC(=O)C=C1C(Br)C[C@@H]1[C@@H]2CC[C@]2(C)C(=O)CC[C@@H]12 (stereo partly drawn) [HDDG-017] | – | 64 | – |
| C[C@]12CCC(=O)CC1=CC[C@@H]1[C@@H]2CC[C@]2(C)C(=O)CC[C@@H]12 [HDDG-018] | – | 41 | – |
| C[C@]12C=CC(O)=C(OC(=O)Cc3ccccc3)C1=CC[C@@H]1[C@@H]2CC[C@]2(C)C(=O)CC[C@@H]12 [HDDG-019] | – | 54 | 29 |
| COC1=C(O)CC[C@@]2(C)C1=CC[C@@H]1[C@@H]2CC[C@]2(C)C(=O)CC[C@@H]12 [HDDG-020] | 72 | 61 | 21 |
| CO[C@@H]1C[C@@H]2[C@H](CC[C@]3(C)C(=O)CC[C@@H]23)[C@@]2(C)CCC(=O)C=C12 [HDDG-021] | 70 | 63 | 0 |
| CCC(=O)OC1=C(O)C=CC2(C)C1=CCC1C2CCC2(C)C(=O)CCC12 (stereo not drawn) [HDDG-022] | 86 | 86 | 51 |
| C[C@]12CCC(=O)C(=[N+]=[N-])C1=CC[C@@H]1[C@@H]2CC[C@]2(C)C(=O)CC[C@@H]12 [HDDG-023] | 30 | 33 | 24 |
| CC(C)(C)O[C@@H]1C[C@@H]2[C@H](CC[C@]3(C)C(=O)CC[C@@H]23)[C@@]2(C)CCC(=O)C=C12 [HDDG-024] | 78 | 76 | 16 |
| CCO[C@@H]1C[C@@H]2[C@H](CC[C@]3(C)C(=O)CC[C@@H]23)[C@@]2(C)C=CC(=O)C=C12 [HDDG-025] | 19 | 39 | – |

| SMILES | % Inhibition [1] [%] | % Inhibition [2] [%] | % Inhibition [3] [%] |
| --- | --- | --- | --- |
| C#CCO[C@@H]1C[C@@H]2[C@H](CC[C@]3(C)C(=O)CC[C@@H]23)[C@@]2(C)C=CC(=O)C=C12 [HDDG-026] | 35 | 80 | 10 |
| C[C@]12C=CC(=O)C=C1[C@H](OCC#Cc1ccccc1)C[C@@H]1[C@@H]2CC[C@]2(C)C(=O)CC[C@@H]12 [HDDG-027] | 66 | 94 | 27 |
| C#CC(C)(C)O[C@@H]1C[C@@H]2[C@H](CC[C@]3(C)C(=O)CC[C@@H]23)[C@@]2(C)C=CC(=O)C=C12 [HDDG-028] | 44 | 35 | 18 |
| CC#CCO[C@@H]1C[C@@H]2[C@H](CC[C@]3(C)C(=O)CC[C@@H]23)[C@@]2(C)C=CC(=O)C=C12 [HDDG-029] | 63 | 95 | 34 |
| CCC(=O)O[C@@H]1C[C@@H]2[C@H](CC[C@]3(C)C(=O)CC[C@@H]23)[C@@]2(C)C=CC(=O)C=C12 [HDDG-030] | 0 | 29 | 3 |
| C[C@]12C=CC(=O)C=C1[C@H](OC(=O)Cc1ccccc1)C[C@@H]1[C@@H]2CC[C@]2(C)C(=O)CC[C@@H]12 [HDDG-031] | 51 | 47 | 0 |
| C#CCOC1=C(O)C=C[C@@]2(C)C1=CC[C@@H]1[C@@H]2CC[C@]2(C)C(=O)CC[C@@H]12 [HDDG-032] | 98 | 93 | 32 |
| CC(=O)O[C@@H]1C[C@@H]2[C@H](CC[C@]3(C)C(=O)CC[C@@H]23)[C@@]2(C)C=CC(=O)C=C12 [HDDG-033] | 96 | 100 | 48 |
| CCOC1=C(O)CC[C@@]2(C)C1=CC[C@@H]1[C@@H]2CC[C@]2(C)C(=O)CC[C@@H]12 [HDDG-034] | 96 | 88 | 14 |
| C[C@]12C=CC(O)=C(OCC#Cc3ccccc3)C1=CC[C@@H]1[C@@H]2CC[C@]2(C)C(=O)CC[C@@H]12 [HDDG-038] | 97 | 91 | 22 |
| CC(=O)OC1=C(O)C=C[C@@]2(C)C1=CC[C@@H]1[C@@H]2CC[C@]2(C)C(=O)CC[C@@H]12 [HDDG-039] | 98 | 88 | 33 |
| C[C@]12C=CC(=O)C=C1[C@@H](Br)C[C@@H]1[C@@H]2CC[C@]2(C)C(=O)CC[C@@H]12 [HDDG-040] | 94 | 98 | 54 |
| C[C@]12CCC(=O)C=C1[C@H](OCc1ccccc1)C[C@@H]1[C@@H]2CC[C@]2(C)C(=O)CC[C@@H]12 [HDDG-041] | 95 | 87 | 34 |
| CCC#CCO[C@@H]1C[C@@H]2[C@H](CC[C@]3(C)C(=O)CC[C@@H]23)[C@@]2(C)CCC(=O)C=C12 [HDDG-042] | 95 | 99 | 40 |
| C[C@]12C=CC(O)=C(OCc3ccccc3)C1=CC[C@@H]1[C@@H]2CC[C@]2(C)C(=O)CC[C@@H]12 [HDDG-043] | 97 | 90 | 18 |
| CCCCO[C@@H]1C[C@@H]2[C@H](CC[C@]3(C)C(=O)CC[C@@H]23)[C@@]2(C)C=CC(=O)C=C12 [HDDG-044, (6R,8S,9S,10R,13S,14S)-6-butoxy-10,13-dimethyl-7,8,9,10,11,12,13,14,15,16-decahydro-3H-cyclopenta[α]phenanthrene-3,17(6H)-dione] | 96 | 86 | 73 |
| CCC#CCO[C@@H]1C[C@@H]2[C@H](CC[C@]3(C)C(=O)CC[C@@H]23)[C@@]2(C)C=CC(=O)C=C12 [HDDG-046, (6R,8S,9S,10R,13S,14S)-10,13-dimethyl-6-(pent-2-yn-1-yloxy)-7,8,9,10,11,12,13,14,15,16-decahydro-3H-cyclopenta[α]phenanthrene-3,17(6H)-dione] | 96 | 99 | 89 |
